# Results as given in patent publication US4552877A, “Nb -Quaternary derivatives of sandwicine and isosandwicine methods and intermediate products in the manufacture of their derivatives and methods of using same and pharmaceutical compositions thereof” (Kali-Chemie Pharma GmbH, priority 1979, dated 1985).
# Structures can show the parent of a compound that is named as a salt. Where two headings read alike, the source gives them in different places.
# What was measured:
# [1] = test system: isolated left atria of female guinea pigs; assay: functional refractory period (FRP) and contraction force (CF) in isolated left atria, double stimulus method of Govier; set-up: species or system guinea pig; conditions: for IC25 / EC25: Cavia porcellus, 0.3 h; for IC25: read-out: CF (concentration reducing contraction force to 75% of starting value); for EC25: read-out: FRP (concentration prolonging functional refractory period to 125% of starting value); for ratio between contraction force-reducing dose and functional refractory period-prolonging dose (CF/FRP): indication of the therapeutic range of the antiarrhythmic effect on the isolated organ, 18 min
# Protocol: The prolongation of the functional refractory period (FRP) and the contraction force (CF) in the isolated left atria of female guinea pigs (albino Pirbright-white guinea pigs, body weight 300-400 g) are determined according to the double stimulus method of Govier (see W.C. Govier, J. Pharmakol. Exp. Ther. 148 (1965) pp 100-105). The concentrations which are given in the table below are the concentrations in μmol/l which 18 minutes after application leads to a prolongation of the functional refractory period to 125% or respectively to a reduction of the contraction force to 75% of the starting value. Furthermore, the ratio between contraction force-reducing dose and functional refractory period-prolonging dose is given. This ratio is an indication of the therapeutic range of the antiarrhythmic effect on the isolate organ (see K. Gref, Verh. Dtsch. Ges. Kreislaufforsch. 35 (1969) pp 88-97).
# male NMRI-mice [2] = assay: minimum symptom dose (procedure of Campbell and Richter); type: in vivo, mouse; conditions: i.p., changes in behavior in 2 out of 3 mice
# Protocol: The minimum symptom dose is determined in male NMRI-mice (body weight range 18-22 g) according to the procedure of Campbell and Richter (see D.E.S. Campbell and W. Richter, Acta Pharmacol Toxicol, 25 (1967), pp 345-363). The minimum symptom dose is defined as that dose in μmol/kg which after i.p. administration causes changes in behavior in 2 out of 3 mice. The minimum symptom dose is a measure for evaluating undesirable side effects.
# [3] = acute toxicity (LD50, 7th day after application); type: in vivo, mouse; conditions: mouse, in vivo, male NMRI-mice, mortality on 7th day
# Protocol: (§1) The acute toxicity of the compounds is determined in male NMRI-mice (body weight range 18-22 g) after oral (p.o) and intraperitonal (i.p.) administration. The LD50 is defined as that dose in μmole/kg which causes a 50% mortality rate of the test animals on the 7th day after application. The calculation of the LD50 is carried out by probitanalysis (see L. Cavalli-Sforza, Grundbegriffe der Biometrie, Gustav Fischer Verlag, Stuttgart, (1964)).
# male NMRI-mice [4] = assay: acute toxicity (LD50, 7th day after application); type: in vivo, mouse; conditions: mortality on 7th day, 10080 min; for LD50 p.o.: oral
# Protocol: as §1
# [5] = isolated guinea pig left atria, 18 minutes after application
# [6] = ip, intraperitoneal, read-out: LD50 i.p.
SMILES,"IC25 [1, 5]","EC25 [1, 5]",ratio between contraction force-reducing dose and functional refractory period-prolonging dose (CF/FRP) [1],Min. Symptom-dose (male NMRI-mice [2]),"LD50 at 168 h [3, 6]",LD50 p.o. (male NMRI-mice [4]),"LD50 at 168 h ([3]; po, read-out: LD50 p.o.)","CF (concentration reducing contraction force to 75% of starting value) [1, 5]","FRP (concentration prolonging functional refractory period to 125% of starting value) [1, 5]",LD50 i.p. (male NMRI-mice [4]; intraperitoneal)
"CCC[N+]12C(O)C(CC)C3CC1C1N(C)c4ccc(Br)cc4C14CC2C3C4O (stereo not drawn) [Example 2.b, Nb-n-propyl-10-bromosandwicinium hydrogen tartrate]",4.7 µM,1.4 µM,3.3,42 µmol/kg,101 µmol/kg,1133 µmol/kg,,,,
"CCC1C2CC3C4N(C)c5ccc(Br)cc5C45CC(C2C5O)[N+]3(CC(O)CN2CCCCC2)C1O (stereo not drawn) [Example 8, Nb-[2-hydroxy-3-(1-piperidinyl)propyl]-10-bromosandwicinium bishydrogen tartrate]",3.4 µM,8.3 µM,0.4,59 µmol/kg,169 µmol/kg,,1190 µmol/kg,,,
"CCC[N+]12C(O)C(CC)C3CC1C1N(C)c4ccc(Br)cc4C14CC2C3C4O (stereo not drawn) [Example 12.b, Nb-n-propyl-10-bromoisosandwicinium hydrogen tartrate]",,,3.6,10 µmol/kg,,566 µmol/kg,,6.5 µmol/L,1.8 µmol/L,118 µmol/kg
"CCCCCC[N+]12C(O)C(CC)C3CC1C1N(C)c4ccc(Br)cc4C14CC2C3C4O (stereo not drawn) [Example 4.b, Nb-n-hexyl-10-bromosandwicinium hydrogen tartrate]",2 µM,4.3 µM,0.5,39 µmol/kg,112 µmol/kg,,> 2300 µmol/kg,,,
"CCC[N+]12C(O)C(CC)C3CC1C1N(C)c4ccccc4C14CC2C3C4O (stereo not drawn) [Neo-Gilurytmal, Nb -propylajmalinium hydrogen tartrate, reference compound]",0.26 µM,1.8 µM,0.15,12 µmol/kg,41 µmol/kg,,65 µmol/kg,,,
"CCC1C2CC3C4N(C)c5ccc(Br)cc5C45CC(C2C5O)[N+]3(C)C1O (stereo not drawn) [Example 1.b, Nb-methyl-10-bromosandwicinium hydrogen tartrate]",20.2 µM,3.2 µM,6.4,11 µmol/kg,325 µmol/kg,,1910 µmol/kg,,,
